Patent US4783462A, “3(2H)pyridazinone, and anti-allergic agent containing it” (Nissan Chemical Industries Ltd., priority 1985, dated 1988)

Test system: LTC4
Assay: Antagonism in isolated guinea-pig trachea, Test method (i) (Table 3, given as LTC4 antagonism)
Assay type: cell-based
Conditions: Cavia porcellus, 5 min, test compound 10^-5 g/ml, given as LTC4 antagonisms
Procedure: (i) LTC4 and LTD4 antagonisms in guinea-pig trachea
Antagonisms for LTC4 and LTD4 were determined in isolated guinea-pig trachea prepared as spiral strip. Tracheal preparations were suspended under 1 g tension in 10 ml organ baths and they were incubated for 1 hr prior to use. Contractile responses to LTC4 (2×10^-8 g/ml) and LTD4 (2×10^-8 g/ml) were obtained after the maximal response to histamine (10^-4 M). Test compounds dissolved in 100% dimethyl sulfoxide were added to the organ baths (final concentration of 10^-5 g/ml or 10^-6 g/ml) 5 min prior to LTC4 and LTD4 addition, and then contractile responses to LTC4 and LTD4 were compared with those of control which was obtained from a paired trachea in the absence of test compounds. LTC4 - and LTD4 -induced contractions were expressed as a percentage of the maximal response to histamine. The antagonism was determined as follows:
Antagonism (%)=(1.0-% contraction in test/% contraction in […]

SMILES	inhibition at 10 µg/mL [%]
CCCc1cc(-c2nnn[nH]2)ccc1OCCCNc1cnn(C(C)(C)C)c(=O)c1Cl [Compound No. 2, 4-Chloro-5-{3-[2-n-propyl-4-(1H-tetrazol-5-ylphenoxy)]propylamino}-2-t-butyl-3(2H)pyridazinone]	15
CCCc1cc(C(=O)OC)ccc1OCCCNc1cnn(C(C)(C)C)c(=O)c1Cl [Compound No. 3]	28
CCOC(=O)c1ccc(OCCCNc2cnn(C(C)(C)C)c(=O)c2Cl)c(Cl)c1 [Compound No. 8]	32
CC(C)(C)n1ncc(NCCCOc2ccc(C(=O)O)cc2Cl)c(Cl)c1=O [Compound No. 9]	14
CCn1ncc(NCCCOc2ccc(C(=O)O)cc2Cl)c(Cl)c1=O [Compound No. 11]	13
CCCc1cc(C(=O)O)ccc1OCCCNc1cnn(C)c(=O)c1Cl [Compound No. 12]	35
Cc1ccc(S(=O)(=O)OCCCNc2cnn(C(C)(C)C)c(=O)c2Cl)cc1 [Compound No. 15, 4-Chloro-5-[3-(4-methylphenylsulfonyloxy)propylamino]-2-t-butyl-3(2H)pyridazinone]	40
COc1ccc(CCNc2cnn(C(C)(C)C)c(=O)c2Cl)cc1OC [Compound No. 16]	31
CCn1ncc(NCCCOC(=O)c2ccc(Cl)cc2)c(Cl)c1=O [Compound No. 17]	45
CCn1ncc(NCCc2ccc(OC)c(OC)c2)c(Cl)c1=O [Compound No. 18]	20
CCOC(=O)c1ccc(OCCCOc2cnn(CC)c(=O)c2Cl)c(Cl)c1 [Compound No. 30, 4-Chloro-5-[3-(2-chloro-4-ethoxycarbonylphenoxy)propoxy]-2-ethyl-3(2H)pyridazinone]	40
CCCc1c(OCCCOc2cnn(C(C)(C)C)c(=O)c2Cl)ccc(C(C)=O)c1O [Compound No. 37, 4-Chloro-5-[3-(2-n-propyl-3-hydroxy-4-acetylphenoxy)propoxy]-2-t-butyl-3(2H)pyridazinone]	40
CCCc1cc(C(=O)OCC)ccc1OCCCNc1cnn(C(C)C)c(=O)c1 [Compound No. 63, 5-[3-(2-n-propyl-4-ethoxycarbonylphenoxy)propylamino]-2-i-propyl-3(2H)pyridazinone]	54
CCCc1cc(C(=O)OC)ccc1OCCCN(C)c1cnn(C(C)C)c(=O)c1Cl [Compound No. 73, 4-Choloro-5-[3-(2-n-propyl-4-methoxycarbonylphenoxy)propyl-N-methylamino]-2-i-propyl-3(2H)pyridazinone]	48
CCc1cc(C=O)ccc1OCCCNc1cnn(CC)c(=O)c1Cl [Compound No. 92, 4-chloro-5-[3-(2-ethyl-4-formylphenoxy)propylamino]-2-ethyl-3(2H) pyridazinone]	100
CCc1cc(C=CC(=O)O)ccc1OCCCNc1cnn(CC)c(=O)c1Cl [Compound No. 93, 4-Chloro-5-{3-[2-ethyl-4-(2-carboxyethenyl)phenoxy]propylamino}-2-ethyl-3(2H)pyridazinone]	79
CCCc1cc(O)ccc1OCCCNc1cnn(CC)c(=O)c1Cl [Compound No. 108, 4-Chloro-5-[3-(2-n-propyl-4-hydroxyphenoxy)propylamino]-2-ethyl-3(2H)pyridazinone]	94
Cc1ccc(S(=O)(=O)OCC(O)CNc2cnn(C(C)C)c(=O)c2Cl)cc1 (stereo not drawn) [Compound No. 143, 4-Chloro-5-[3-(4-methylphenylsulfonyloxy)-2-hydroxypropylamino]-2-i-propyl-3(2H)pyridazinone]	26
CCCc1cc(C#N)ccc1SCC(O)CNc1cnn(C(C)C)c(=O)c1Cl (stereo not drawn) [Compound No. 153, 4-Chloro-5-[3-(2-n-propyl-4-cyanothiophenoxy)-2-hydroxypropylamino]-2-i-propyl-3(2H)pyridazinone]	64

SMILES	inhibition at 10 µg/mL [%]
CCCc1cc(C(=O)O)ccc1SCC(O)CNc1cnn(C(C)C)c(=O)c1Cl (stereo not drawn) [Compound No. 154, 4-Chloro-5-[3-(2-n-propyl-4-carboxythiophenoxy)-2-hydroxypropylamino]-2-i-propyl-3(2H)pyridazinone]	20
CCCc1cc(C(=O)OC)ccc1SCC(O)CNc1cnn(C(C)C)c(=O)c1Cl (stereo not drawn) [Compound No. 155, 4-Chloro-5-[3-(2-n-propyl-4-methoxycarbonylthiophenoxy)-2-hydroxypropylamino]-2-i-propyl-3(2H) pyridazinone]	55
CCCc1cc(C#N)ccc1OCC(CN(C)c1cnn(C(C)C)c(=O)c1Cl)OC (stereo not drawn) [Compound No. 157, 4-Chloro-5-[3-(2-n-propyl-4-cyanophenoxv)-2-methoxypropyl-N-methylamino]-2-i-propyl-3(2H)pyridazinone]	62
COC(=O)CCC(=O)c1ccc(OCC(O)CNc2cnn(C(C)C)c(=O)c2Cl)cc1 (stereo not drawn) [Compound No. 166, 4-chloro-5-{3-[4-(β-methoxycarbonylpropyonyl)phenoxy]-2-hydroxypropylamino}-2-i-propyl-3(2H) pyridazinone]	25
COC(=O)CC(C)C(=O)c1ccc(OCC(CN(C)c2cnn(C(C)C)c(=O)c2Cl)OC)cc1 (stereo not drawn) [Compound No. 167, 4-Chloro-5-{3-[4-(β-methoxycarbonyl-α-methylpropionyl)phenoxy]-2-methoxypropyl-N-methylamino}-2-i-propyl-3(2H)pyridazinone]	30
CCCc1cc(C#N)ccc1OCC(O)COc1cnn(C(C)C)c(=O)c1Cl (stereo not drawn) [Compound No. 171, 4-Chloro-5-[3-(2-n-propyl-4-cyanophenoxy)-2-hydroxypropoxy]-2-i-propyl-3(2H)pyridazinone]	66
CCCc1cc(C#N)ccc1OCC(COc1cnn(C(C)C)c(=O)c1Cl)OC (stereo not drawn) [Compound No. 172, 4-Chloro-5-[3-(2-n-propyl-4-cyanophenoxy)-2-methoxypropoxy]-2-i-propyl-3(2H)pyridazinone]	79
CCCc1cc(C(=O)O)ccc1OCCCNc1cnn(C(C)(C)C)c(=O)c1Cl [compound 5]	33
COc1ccc(CCNc2cnn(C(C)(C)C)c(=O)c2Cl)cc1 [compound 19]	60
CCCc1c(OCCCOc2cnn(C(C)(C)C)c(=O)c2Cl)ccc2c(=O)cc(C(=O)O)oc12 [compound 24]	40
CCCc1c(OCCCOc2cnn(C(C)(C)C)c(=O)c2CC)ccc2c(=O)cc(C(=O)OCC)oc12 [compound 26]	15
CCn1ncc(OCCCOc2ccc(C(=O)O)cc2Cl)c(Cl)c1=O [compound 31]	19
CCOC(=O)c1ccc(OCCCOc2cnn(C(C)(C)C)c(=O)c2Cl)c(Cl)c1 [compound 32]	29
CC(C)(C)n1ncc(OCCCOc2ccc(C(=O)O)cc2Cl)c(Cl)c1=O [compound 33]	15
COc1cccc(OCCCOc2cnn(C(C)(C)C)c(=O)c2Br)c1 [compound 34]	61
CCCc1cc(-c2nn[nH]n2)ccc1OCCCNc1cnn(CC)c(=O)c1Cl [compound 48]	36
CCOC(=O)c1ccc(OCCCNc2cnn(CC)c(=O)c2Cl)c(OC)c1 [compound 49]	57
CCn1ncc(NCCCOc2ccccc2OC)c(Cl)c1=O [compound 50]	35
CCn1ncc(NCCCOc2ccc(C(=O)O)cc2OC)c(Cl)c1=O [compound 52]	23

SMILES	inhibition at 10 µg/mL [%]
CCOc1ccc(OCCCNc2cnn(CC)c(=O)c2Cl)cc1 [compound 53]	59
CCn1ncc(NCCCOc2ccc(C)cc2)c(Cl)c1=O [compound 54]	64
CCn1ncc(NCCCOc2ccc(OC)cc2)c(Cl)c1=O [compound 56]	62
CCn1ncc(NCCCOc2ccccc2C)c(Cl)c1=O [compound 57]	83
COc1ccc(OCCCNc2cnn(C(C)C)c(=O)c2Cl)cc1 [compound 58]	88
COc1ccccc1OCCCNc1cnn(C(C)C)c(=O)c1Cl [compound 59]	82
CCCc1cc(C#N)ccc1SCCCNc1cnn(C(C)C)c(=O)c1Cl [compound 61]	73
CCCc1cc(C(=O)O)ccc1SCCCNc1cnn(C(C)C)c(=O)c1Cl [compound 62]	57
CC(C)n1ncc(NCCc2ccc(O)cc2)c(Cl)c1=O [compound 66]	69
CCCc1cc(-c2nnn[nH]2)ccc1SCCCNc1cnn(C(C)C)c(=O)c1Cl [compound 68]	33
C=CCc1cc(C(=O)O)ccc1OCCCNc1cnn(C(C)C)c(=O)c1Cl [compound 70]	65
CC(C)n1ncc(NCCCOc2ccc(C(=O)CCC(=O)O)cc2)c(Cl)c1=O [compound 75]	16
COC(=O)CCC(=O)c1ccc(OCCCNc2cnn(C(C)C)c(=O)c2Cl)cc1 [compound 76]	57
COC(=O)CCC(=O)c1ccc(OCCCN(C)c2cnn(C(C)C)c(=O)c2Cl)cc1 [compound 77]	17
CC(C)n1ncc(N(C)CCCOc2ccc(C(=O)CCC(=O)O)cc2)c(Cl)c1=O [compound 78]	32
COC(=O)c1ccc(OCCCOc2cnn(C(C)C)c(=O)c2Cl)c(C(C)C)c1 [compound 79]	58
C=CCc1cc(C(=O)OC)ccc1OCCCNc1cnn(CC)c(=O)c1Cl [compound 81]	80
CCCc1cc(C(=O)O)ccc1OCCCOc1cnn(CC)c(=O)c1Cl [compound 83]	46
CCCc1cc(C(=O)OC)ccc1OCCCOc1cnn(CC)c(=O)c1Cl [compound 84]	85
